Laboratory results taken from patent US10426752B2, “Menthol-derivative compounds and use thereof as oral and systemic active agents” (priority 2009, dated 2019).
≈ marks a conversion by molar mass, not a printed value. Where two headings read alike, the source gives them in different places.

How the values were obtained:
GM-CSF = assay: 5-plex assay by using Luminex: GM-CSF; format: cell-based; settings: pure compounds
Description: (§1) The menthol-derivative compound of the present invention was further evaluated in 5-plex assay by using luminex.

PGE2 = PGE2 assay (anti-inflammatory test, SOP No. ATO-5307-00); format: cell-based
Protocol: The anti-inflammation test was carried out according to SOP No. ATO-5307-00 measuring the percent inhibition of PGE2.
(§2) The bacterial anti-attachment activity of a selected radical of menthol carbonate/carbamate derivatives of the present invention was investigated using the crystal violate assay (SOP No. ATO-5345-00) in a 384-well plate over a 0.0004-2500 ppm concentration range. The anti-oxidant activity of the menthol carbonate/carbamate derivatives of the present invention was determined using the lipid peroxides assay (Kamiaya Biomedical Co., Seattle, Wash.) which is a colorimetric method that measures reduction of cumene hydroperoxide radicals. The anti-microbial test was performed according to the SOP No. ATO-5308-00 for determination of Minimal Inhibitory Concentration (MIC). The anti-inflammatory test was carried out according to SOP No. ATO-5307-00 measuring the percent inhibition of PGE2.
The anti-inflammatory activity of 2-isopropyl-5-methylcyclohexyl 2-hydroxyphenyl carbamate was tested in PGE2 assay and compared to Triclosan.

IL-1b = assay: 5-plex assay by using Luminex: IL-1b; format: cell-based; settings: pure compounds
Description: as §1

TNF-α = assay: 5-plex assay by using Luminex: TNF-α; format: cell-based; settings: for TNF-α (reduction of untreated control): pure compounds
Description: as §1

MMP-13 mRNA = assay: Inhibition of MMP-13 mRNA expression stimulated by parathyroid hormone (PTH); format: cell-based; settings: PTH for 4 hours, FIG. 4
Protocol: The anti-MMP-13 activity was determined by measuring the inhibition of MMP-13 mRNA expression that is stimulated by parathyroid hormone (PTH).

[1] = Lipid peroxides assay (anti-oxidant activity); format: biochemical; settings: in simple solution, FIG. 2
Protocol: The anti-oxidant activity was determined using the lipid peroxidases assay (Kamiaya Biomedical Co., Seattle, Wash.) which is a colorimetric method that measures reduction of cumene hydroperoxide radicals.
as §2

IL-6 = assay: 5-plex assay by using Luminex: IL-6; format: cell-based; settings: for IL-6 (reduction of untreated control): pure compounds
Description: as §1

[2] = Artificial mouth model (anti-microbial efficacy); settings: FIG. 5
A.v = assay: Minimal Inhibitory Concentration (MIC) test, SOP No. ATO-5308-00; format: cell-based; settings: for MIC: read-out: MIC (against A.v)
Protocol: The anti-microbial test was measured according to the SOP No. ATO-5308-00 for determination of Minimal Inhibitory Concenctration (MIC).
as §2

Row | IC50 (PGE2; pure compounds, PGE2 assay, read-out: IC50) | Anti-microbial efficacy in MIC test (in words) (A.v) | MIC (A.v; in vitro) | Structure (SMILES) | GM-CSF (reduction of untreated control) (GM-CSF) | Anti-inflammatory activity in PGE2 assay (in words) (PGE2; pure compound) | IL-1b (reduction of untreated control) (IL-1b) | TNF-α production (in words) (TNF-α; pure compound) | TNF-α (reduction of untreated control) (TNF-α) | MMP-13 mRNA stimulated by parathyroid hormone (in words) (MMP-13 mRNA) | Anti-oxidant efficacy (in words) [1] | IL-6 production (in words) (IL-6; pure compound) | IL-6 (reduction of untreated control) (IL-6) | Anti-microbial efficacy in artificial mouth model (in words) [2] | IC50 (PGE2) | MIC (A.v)
1 | 380 nM | good anti-microbial efficacy | 4.9 µg/mL (≈ 16.8 µM) | CC1CCC(C(C)C)C(OC(=O)Nc2ccccc2O)C1 (stereo not shown) [2-isopropyl-5-methylcyclohexyl 2-hydroxyphenyl carbamate] | 6% | comparable to Triclosan | 13% | significantly inhibits | 81% | significantly suppressed | comparable anti-oxidant efficacy with Vitamin E | significantly inhibits | 33% | good anti-microbial efficacy |  | 
2 |  |  |  | Oc1cc(Cl)ccc1Oc1ccc(Cl)cc1Cl [Triclosan, 2,4,4-trichloro-2′-hydroxydiphenyl ether, reference compound] | 4% |  | 13% |  | 58% |  |  |  | 37% |  | 480 nM | 1.9 µg/mL (≈ 6.56 µM)
